Test results reported in the NIST ThermoML archive (doi:10.1007/s10765-016-2109-2).
Numbers after ± are expanded uncertainties.

Assay: molar heat capacity at constant volume
Conditions: Liquid, Vacuum adiabatic calorimetry

CCCCCC[n+]1ccn(C)c1.O=S(=O)([N-]S(=O)(=O)C(F)(F)F)C(F)(F)F
Conditions	molar heat capacity at constant volume [J/K/mol]
325.26 K, Mass density=1344.14 kg/m3	609.39 ± 37
325.39 K, Mass density=1344.14 kg/m3	608.49 ± 37
325.51 K, Mass density=1344.14 kg/m3	608.94 ± 37
325.63 K, Mass density=1344.14 kg/m3	608.49 ± 37
325.75 K, Mass density=1344.14 kg/m3	609.83 ± 37
325.88 K, Mass density=1344.14 kg/m3	608.94 ± 37
326 K, Mass density=1344.14 kg/m3	608.04 ± 37
326.13 K, Mass density=1344.14 kg/m3	606.7 ± 36
326.26 K, Mass density=1344.14 kg/m3	608.49 ± 37
328.58 K, Mass density=1344.14 kg/m3	609.83 ± 37
328.7 K, Mass density=1344.14 kg/m3	608.49 ± 37
328.82 K, Mass density=1344.14 kg/m3	607.6 ± 36
328.94 K, Mass density=1344.14 kg/m3	606.25 ± 36
329.07 K, Mass density=1344.14 kg/m3	607.15 ± 36
329.19 K, Mass density=1344.14 kg/m3	609.39 ± 37
329.31 K, Mass density=1344.14 kg/m3	609.83 ± 37
329.43 K, Mass density=1344.14 kg/m3	605.36 ± 36
333.09 K, Mass density=1344.14 kg/m3	612.07 ± 37
333.21 K, Mass density=1344.14 kg/m3	606.25 ± 36
333.33 K, Mass density=1344.14 kg/m3	609.39 ± 37
333.45 K, Mass density=1344.14 kg/m3	613.86 ± 37
333.57 K, Mass density=1344.14 kg/m3	607.6 ± 36
333.7 K, Mass density=1344.14 kg/m3	610.73 ± 37
333.82 K, Mass density=1344.14 kg/m3	613.41 ± 37
333.94 K, Mass density=1344.14 kg/m3	609.83 ± 37
341.28 K, Mass density=1344.14 kg/m3	615.2 ± 37
341.4 K, Mass density=1344.14 kg/m3	610.73 ± 37
341.52 K, Mass density=1344.14 kg/m3	617.44 ± 37
341.64 K, Mass density=1344.14 kg/m3	612.96 ± 37
341.76 K, Mass density=1344.14 kg/m3	620.12 ± 37
341.88 K, Mass density=1344.14 kg/m3	615.65 ± 37
342 K, Mass density=1344.14 kg/m3	614.75 ± 37
342.12 K, Mass density=1344.14 kg/m3	618.78 ± 37
348.64 K, Mass density=1344.14 kg/m3	619.23 ± 37
348.76 K, Mass density=1344.14 kg/m3	617.89 ± 37
348.88 K, Mass density=1344.14 kg/m3	621.91 ± 37
348.99 K, Mass density=1344.14 kg/m3	620.12 ± 37
349.11 K, Mass density=1344.14 kg/m3	618.78 ± 37
349.23 K, Mass density=1344.14 kg/m3	623.7 ± 38
349.35 K, Mass density=1344.14 kg/m3	617.44 ± 37
349.47 K, Mass density=1344.14 kg/m3	622.81 ± 38
349.58 K, Mass density=1344.14 kg/m3	619.68 ± 37
350.36 K, Mass density=1323.92 kg/m3	625.05 ± 38
350.41 K, Mass density=1323.92 kg/m3	624.15 ± 38
350.53 K, Mass density=1323.92 kg/m3	623.26 ± 38
350.64 K, Mass density=1323.92 kg/m3	622.36 ± 37
350.76 K, Mass density=1323.92 kg/m3	625.49 ± 38
350.88 K, Mass density=1323.92 kg/m3	624.6 ± 38
350.99 K, Mass density=1323.92 kg/m3	621.02 ± 37
351.11 K, Mass density=1323.92 kg/m3	621.91 ± 37
351.23 K, Mass density=1323.92 kg/m3	623.26 ± 38
351.35 K, Mass density=1323.92 kg/m3	620.12 ± 37
351.46 K, Mass density=1323.92 kg/m3	621.02 ± 37
351.58 K, Mass density=1323.92 kg/m3	622.36 ± 37
351.7 K, Mass density=1323.92 kg/m3	620.57 ± 37
351.82 K, Mass density=1323.92 kg/m3	621.47 ± 37
351.93 K, Mass density=1323.92 kg/m3	619.68 ± 37
352.03 K, Mass density=1323.92 kg/m3	621.47 ± 37
360.03 K, Mass density=1323.92 kg/m3	626.39 ± 38
360.19 K, Mass density=1323.92 kg/m3	624.15 ± 38
360.3 K, Mass density=1323.92 kg/m3	628.18 ± 38
360.42 K, Mass density=1323.92 kg/m3	622.81 ± 38
360.53 K, Mass density=1323.92 kg/m3	625.05 ± 38
360.65 K, Mass density=1323.92 kg/m3	622.36 ± 37
360.76 K, Mass density=1323.92 kg/m3	623.26 ± 38
360.88 K, Mass density=1323.92 kg/m3	621.02 ± 37
360.99 K, Mass density=1323.92 kg/m3	621.47 ± 37
361.11 K, Mass density=1323.92 kg/m3	622.81 ± 38
361.22 K, Mass density=1323.92 kg/m3	620.57 ± 37
361.34 K, Mass density=1323.92 kg/m3	627.28 ± 38
365.26 K, Mass density=1323.92 kg/m3	624.15 ± 38
365.35 K, Mass density=1323.92 kg/m3	629.52 ± 38
365.47 K, Mass density=1323.92 kg/m3	627.28 ± 38
365.58 K, Mass density=1323.92 kg/m3	625.49 ± 38
365.69 K, Mass density=1323.92 kg/m3	632.65 ± 38
365.81 K, Mass density=1323.92 kg/m3	622.36 ± 37
365.92 K, Mass density=1323.92 kg/m3	629.07 ± 38
366.04 K, Mass density=1323.92 kg/m3	627.28 ± 38
366.15 K, Mass density=1323.92 kg/m3	630.41 ± 38
366.27 K, Mass density=1323.92 kg/m3	623.7 ± 38
366.38 K, Mass density=1323.92 kg/m3	629.97 ± 38
372.87 K, Mass density=1323.92 kg/m3	635.78 ± 38
372.96 K, Mass density=1323.92 kg/m3	634.44 ± 38
373.07 K, Mass density=1323.92 kg/m3	631.76 ± 38
373.18 K, Mass density=1323.92 kg/m3	633.1 ± 38
373.29 K, Mass density=1323.92 kg/m3	636.68 ± 38
373.41 K, Mass density=1323.92 kg/m3	629.07 ± 38
373.52 K, Mass density=1323.92 kg/m3	634.89 ± 38
373.63 K, Mass density=1323.92 kg/m3	629.97 ± 38
373.74 K, Mass density=1323.92 kg/m3	631.31 ± 38
373.86 K, Mass density=1323.92 kg/m3	638.02 ± 38
373.97 K, Mass density=1323.92 kg/m3	636.68 ± 38
374.08 K, Mass density=1323.92 kg/m3	638.92 ± 38
